Measured values as given in paper PMC7496096, “Functional Characterisation of ClpP Mutations Conferring Resistance to Acyldepsipeptide Antibiotics in Firmicutes” (Chembiochem, 2020).
≈ marks a conversion by molar mass, not a printed value.

How the values were obtained:
S. aureus RC13 = type: cell-based, Staphylococcus aureus; details: resistant clone of S. aureus ATCC 29213; ClpP G68→V (ClpP core)
Description: (§1) Determination of antibacterial activity: ADEP1 was purified from the culture supernatant of S. hawaiiensis NRRL 15010 as described.4 ADEPs 2, 4, 7, 9 were custom synthesised by EMC Microcollections, Tübingen, or provided by AiCuris, Wuppertal, Germany. The minimal inhibitory concentration (MIC) was determined by broth microdilution in Mueller‐Hinton broth (without cation adjustment) according to the guidelines of the Clinical Laboratory Standards Institute (CLSI).69 The inoculum was set to 5×10^4 CFU mL^−1 to allow some distance to the determined spontaneous resistance frequencies. […] All other ADEPs were used from DMSO stock solutions kept at −20 °C.
(§2) Screening for ADEP‐resistant mutants and determination of resistance rates: Single colonies of wild‐type strains grown on Mueller‐Hinton agar plates overnight were suspended in sterile saline and a final inoculum of 5×10^6 cells was spread on plates supplemented with different ADEP congeners at 4× and 10× the MIC. For B. subtilis strain 3xclpP, ADEP7‐containing Mueller‐Hinton agar plates were additionally supplemented with 1 mM IPTG. Resistant colonies were counted after 24 h at 37 °C and colonies were randomly chosen for MIC determinations and sequencing. Mutations in the clpP gene of the respective isolated mutants were analysed by amplifying the clpP gene (and upstream promoter region) by PCR and sequencing of the resulting PCR amplicons (LGC genomics). Sequencing data were analysed by using SnapGene software (GSL Biotech).

S. aureus RC10 = type: cell-based, Staphylococcus aureus; details: resistant clone of S. aureus ATCC 29213; ClpP I165→M (equatorial interface; α6)
Description: as §1, §2

S. aureus RC4 = type: cell-based, Staphylococcus aureus; details: resistant clone of S. aureus 133; ClpP N173→D, ring-ring interaction
Description: as §1, §2

S. aureus RC15 = type: cell-based, Staphylococcus aureus; details: resistant clone of S. aureus ATCC 29213; ClpP E52→STOP, premature stop
Description: as §1, §2

S. aureus RC3 = type: cell-based, Staphylococcus aureus; details: resistant clone of S. aureus 133; ClpP A133→T, ring-ring interaction
Description: as §1, §2

S. aureus RC11 = type: cell-based, Staphylococcus aureus; details: resistant clone of S. aureus ATCC 29213; ClpP Q82→P (ClpP core; α3)
Description: as §1, §2

S. aureus RC5 = type: cell-based, Staphylococcus aureus; details: resistant clone of S. aureus 133; ClpP A133→V, ring-ring interaction
Description: as §1, §2

S. aureus RC1 = type: cell-based, Staphylococcus aureus; details: resistant clone of S. aureus 133; ClpP Q132→H, oligomerisation sensor
Description: as §1, §2

S. aureus RC2 = type: cell-based, Staphylococcus aureus; details: resistant clone of S. aureus 133; ClpP M190→T, ADEP binding site
Description: as §1, §2

S. aureus RC16 = type: cell-based, Staphylococcus aureus; details: resistant clone of S. aureus ATCC 29213; ClpP A114→T (ClpP core; β5)
Description: as §1, §2

S. aureus RC7 = type: cell-based, Staphylococcus aureus; details: resistant clone of S. aureus ATCC 29213; ClpP Q89→STOP, premature stop
Description: as §1, §2

S. aureus RC9 = type: cell-based, Staphylococcus aureus; details: resistant clone of S. aureus ATCC 29213; ClpP H123→R, active site
Description: as §1, §2

S. aureus RC17 = type: cell-based, Staphylococcus aureus; details: resistant clone of S. aureus ATCC 29213; ClpP A133→V, ring-ring interaction
Description: as §1, §2

S. aureus RC14 = type: cell-based, Staphylococcus aureus; details: resistant clone of S. aureus ATCC 29213; ClpP I91→T; A96→V (ClpP core; β3, β4)
Description: as §1, §2

S. aureus RC12 = type: cell-based, Staphylococcus aureus; details: resistant clone of S. aureus ATCC 29213; ClpP E9→V, N-terminal gate
Description: as §1, §2

S. aureus RC6 = type: cell-based, Staphylococcus aureus; details: resistant clone of S. aureus 133; ClpP Q35→STOP, premature stop
Description: as §1, §2

S. aureus RC18 = type: cell-based, Staphylococcus aureus; details: resistant clone of S. aureus ATCC 29213; ClpP R23→P, N-terminal gate
Description: as §1, §2

S. aureus RC8 = type: cell-based, Staphylococcus aureus; details: resistant clone of S. aureus ATCC 29213; Δ107 nt, C-terminal truncation
Description: as §1, §2

E. faecium RC3 = type: cell-based, Enterococcus faecium; details: resistant clone of E. faecium L4001; ClpP G127→A (equatorial interface)
Description: as §1, §2

E. faecium RC1 = type: cell-based, Enterococcus faecium; details: resistant clone of E. faecium L4001; ClpP I29→T, ADEP binding site
Description: as §1, §2

E. faecium RC2 = type: cell-based, Enterococcus faecium; details: resistant clone of E. faecium L4001; insertion of IS30 family transposase between promotor and start codon, no expression
Description: as §1, §2

S. pneumoniae G9A = type: cell-based, Streptococcus pneumoniae; details: broth microdilution, Mueller-Hinton broth; wildtype
Description: as §1

B. subtilis 168 = test: microbe, parasite or virus in culture; type: cell-based, Bacillus subtilis; details: broth microdilution, Mueller-Hinton broth (without cation adjustment), CLSI, inoculum 5×10^4 CFU mL^−1; wild type
Description: as §1

S. aureus 133 = test: Spontaneous resistance rate on ADEP-containing agar; type: cell-based, Staphylococcus aureus; details: ADEP exposure 4× MIC in Mueller-Hinton agar; 5×10^6 cells plated, colonies counted after 24 h at 37 °C
Description: as §2

S. aureus ATCC 29213 = test: as above; type: cell-based, Staphylococcus aureus; details: 5×10^6 cells plated, colonies counted after 24 h at 37 °C
Description: as §2

C[C@@H]1C[C@H]2C(=O)OC[C@H](NC(=O)[C@H](Cc3cc(F)cc(F)c3)NC(=O)CCC3CCCCC3)C(=O)N3CCC[C@H]3C(=O)N3CCCC[C@H]3C(=O)N[C@@H](C)C(=O)N2C1 [ADEP2]
MIC (S. aureus RC13): >64 µg/mL | MIC (S. aureus RC10): >64 µg/mL | MIC (S. aureus RC4): >64 µg/mL | MIC (S. aureus RC15): >64 µg/mL | MIC (S. aureus RC3): >64 µg/mL | MIC (S. aureus RC11): >64 µg/mL | MIC (S. aureus RC5): >64 µg/mL | MIC (S. aureus RC1): 8 µg/mL (≈ 10 µM) | MIC (S. aureus RC2): 2 µg/mL (≈ 2.5 µM) | MIC (S. aureus RC16): >64 µg/mL | MIC (S. aureus RC7): >64 µg/mL | MIC (S. aureus RC9): >64 µg/mL | MIC (S. aureus RC17): >64 µg/mL | MIC (S. aureus RC14): >64 µg/mL | MIC (S. aureus RC12): >64 µg/mL | MIC (S. aureus RC6): >64 µg/mL | MIC (S. aureus RC18): >64 µg/mL | MIC (S. aureus RC8): >64 µg/mL | MIC (E. faecium RC3): 4 µg/mL (≈ 5.01 µM) | MIC (E. faecium RC1): 0.125 µg/mL (≈ 0.156 µM) | MIC (E. faecium RC2): >16 µg/mL | MIC (S. pneumoniae G9A): ≤0.063 µg/mL | MIC (B. subtilis 168): ≤0.031 µg/mL | Resistance rate (S. aureus 133): 3×10^−6 | Resistance rate (S. aureus ATCC 29213; ADEP exposure 4× MIC in Mueller-Hinton agar): 7×10^−7 | Resistance rate (S. aureus ATCC 29213; ADEP exposure 10× MIC in Mueller-Hinton agar): 7×10^−7
